In brackets after ≈: the same amount, converted by molar mass. One block for each compound: values may come before it.
Experiments:
[1] = tested on: Plasma; test: Plasma concentration in rat at 240 mg/kg, po administered using compound, Lipoid S100 and pluronic f127 ratio 1:1:1 formulation relative to non-formulated compound after 4 to 6 hrs; type: ADME, organism-based; set-up: dose 240 mg/kg, route oral; details: in vivo
[2] = tested on: Brain; test: Drug level in rat brain at 240 mg/kg, po administered using compound, Lipoid S100 and pluronic f127 ratio 1:1:1 formulation; type: ADME, organism-based; set-up: dose 240 mg/kg, route oral; details: in vivo
[3] = tested on: Brain; test: Drug level in rat brain at 240 mg/kg, po; type: ADME, organism-based; set-up: dose 240 mg/kg, route oral; details: in vivo
[4] = Solubility of the compound in fasted state simulated intestinal fluid at compound, Lipoid S100 and pluronic f127 ratio 1:1:1 after 3 hrs by HPLC analysis; type: physicochemical
[5] = Solubility of the compound in fasted state simulated intestinal fluid at compound to Lipoid S100 ratio 1:1 after 3 hrs by HPLC analysis; type: physicochemical
[6] = Solubility of the compound in fasted state simulated intestinal fluid at compound to Lipoid S100 ratio 1:1 after 3 hrs by HPLC analysis in presence of 3:1 molar ratio of Lipoid S100 to tween 80; type: physicochemical
[7] = Solubility of the compound in fed state simulated intestinal fluid at compound to Lipoid S100 ratio 1:1 after 3 hrs by HPLC analysis; type: physicochemical
[8] = Apparent permeability from apical to basolateral side of human Caco2 cells at compound, Lipoid S100 and pluronic f127 ratio 1:1:1 using modified fed state simulated intestinal fluid; type: ADME, cell-based; details: Caco-2
[9] = Permeability from apical to basolateral side of human Caco2 cells assessed as mass balance at compound, Lipoid S100 and pluronic f68 ratio 1:1:1; type: ADME, cell-based; details: Caco-2, read-out: permeability
[10] = Permeability from apical to basolateral side of human Caco2 cells assessed as mass balance at compound, Lipoid S100 and vitamin E-TPGS ratio 1:1:1; type: ADME, cell-based; details: Caco-2, read-out: permeability
[11] = Permeability from apical to basolateral side of human Caco2 cells assessed as mass balance at compound, Lipoid S100 and tween 80 ratio 1:1:1; type: ADME, cell-based; details: Caco-2, read-out: permeability
[12] = Solubility of the compound in fasted state simulated intestinal fluid at compound to Lipoid S100 ratio 1:1 after 3 hrs by HPLC analysis in presence of 10:1 molar ratio of Lipoid S100 to tween 80; type: physicochemical
[13] = Solubility of the compound in fed state simulated intestinal fluid at compound to Lipoid S100 ratio 1:3 after 3 hrs by HPLC analysis; type: physicochemical
[14] = Solubility of the compound in fasted state simulated intestinal fluid at 5 mg/mL after 3 hrs by HPLC analysis; type: physicochemical
[15] = Permeability from apical to basolateral side of human Caco2 cells assessed as mass balance at compound, Lipoid S100 and gelucire 44/14 ratio 1:1:1; type: ADME, cell-based; details: Caco-2, read-out: permeability
[16] = Permeability from apical to basolateral side of human Caco2 cells assessed as mass balance at 5 mg/mL; type: ADME, cell-based; details: Caco-2, read-out: permeability
[17] = Apparent permeability from apical to basolateral side of human Caco2 cells at compound, Lipoid S100 and pluronic f127 ratio 1:1:1 using HBSS buffer; type: ADME, cell-based; details: Caco-2
[18] = Solubility of the compound in HBSS buffer containing 4% bovine serum albumin at 5 mg/mL after 3 hrs by HPLC analysis; type: physicochemical
[19] = Solubility of the compound in fasted state simulated intestinal fluid at compound to Lipoid S100 ratio 1:3 after 3 hrs by HPLC analysis in presence of 3:1 molar ratio of Lipoid S100 to tween 80; type: physicochemical
[20] = Solubility of the compound in fasted state simulated intestinal fluid at compound to Lipoid S100 ratio 1:3 after 3 hrs by HPLC analysis in presence of 5:1 molar ratio of Lipoid S100 to tween 80; type: physicochemical
[21] = Permeability from apical to basolateral side of human Caco2 cells assessed as mass balance at compound to Lipoid S100 ratio 1:3 in presence of 5:1 molar ratio of Lipoid S100 to tween 80; type: ADME, cell-based; details: Caco-2, read-out: permeability
[22] = tested on: Caco-2; test: Permeability from apical to basolateral side of human Caco2 cells at compound to Lipoid S100 ratio 1:3 in presence of 5:1 molar ratio of Lipoid S100 to tween 80; type: ADME, cell-based; details: BLD = below limit of detection
[23] = Solubility of the compound in fasted state simulated intestinal fluid at compound to Lipoid S100 ratio 1:1 after 3 hrs by HPLC analysis in presence of 5:1 molar ratio of Lipoid S100 to tween 80; type: physicochemical
[24] = Solubility of the compound in fasted state simulated intestinal fluid at compound to Lipoid S100 ratio 1:3 after 3 hrs by HPLC analysis; type: physicochemical
[25] = Permeability from apical to basolateral side of human Caco2 cells assessed as mass balance at compound to Lipoid S100 ratio 1:3; type: ADME, cell-based; details: Caco-2, read-out: permeability
[26] = tested on: Plasma; test: Plasma concentration in rat at 240 mg/kg, po administered using compound, Lipoid S100 and pluronic f127 ratio 1:1:1 formulation relative to non-formulated compound after 2 hrs; type: ADME, organism-based; set-up: dose 240 mg/kg, route oral; details: in vivo
[27] = Apparent permeability from apical to basolateral side of human Caco2 cells at compound, Lipoid S100 and pluronic f127 ratio 1:1:1 using modified fasted state simulated intestinal fluid; type: ADME, cell-based; details: Caco-2
[28] = Solubility of the compound in water at compound to Lipoid S100 ratio 1:3 after 3 hrs by HPLC analysis; type: physicochemical
[29] = Solubility of the compound in fed state simulated intestinal fluid at 5 mg/mL after 3 hrs by HPLC analysis; type: physicochemical
[30] = Solubility of the compound in fasted state simulated intestinal fluid at compound to Lipoid S100 ratio 1:3 after 3 hrs by HPLC analysis in presence of 10:1 molar ratio of Lipoid S100 to tween 80; type: physicochemical
[31] = Solubility of the compound in water at pH 6.5; type: physicochemical
[32] = Solubility of the compound in water at compound to Lipoid S100 ratio 1:1 after 3 hrs by HPLC analysis; type: physicochemical
[33] = Solubility of the compound in water at 5 mg/mL after 3 hrs by HPLC analysis; type: physicochemical
[34] = Permeability from apical to basolateral side of human Caco2 cells assessed as mass balance at compound to Lipoid S100 ratio 1:1; type: ADME, cell-based; details: Caco-2, read-out: permeability
[35] = Solubility of the compound in modified fasted state simulated intestinal fluid at 5 mg/mL after 3 hrs by HPLC analysis; type: physicochemical
[36] = Permeability from apical to basolateral side of human Caco2 cells assessed as mass balance at compound, Lipoid S100 and vitamin E-TPGS ratio 1:2:1; type: ADME, cell-based; details: Caco-2, read-out: permeability
[37] = tested on: Plasma; test: Plasma concentration in rat at 240 mg/kg, po administered using compound, Lipoid S100 and pluronic f127 ratio 1:1:1 formulation relative to non-formulated compound after 8 hrs; type: ADME, organism-based; set-up: dose 240 mg/kg, route oral; details: in vivo
[38] = Permeability from apical to basolateral side of human Caco2 cells assessed as mass balance at compound, Lipoid S100 and pluronic f127 ratio 1:1:1; type: ADME, cell-based; details: Caco-2, read-out: permeability

fold change (FC) [1]: 26
Drug uptake [2]: 156.1 ng/g
Drug uptake [3]: 163.7 ng/g
SMILES: CC(=O)O[C@@H]1CC[C@@]2(C)[C@@H](CC[C@]3(C)[C@@H]2CC=C2[C@@H]4[C@@H](C)[C@H](C)CC[C@]4(C)CC[C@]23C)[C@@]1(C)C(=O)O

fold change (FC) [1]: 26
Drug uptake [2]: 60.1 ng/g
Drug uptake [3]: 43 ng/g
SMILES: CC(=O)O[C@@H]1CC[C@@]2(C)[C@@H](CC[C@]3(C)[C@@H]2CC=C2[C@@H]4CC(C)(C)CC[C@]4(C)CC[C@]23C)[C@@]1(C)C(=O)O

solubility at 3 h [4]: 0.395 mg/mL
solubility at 3 h [5]: 0.124 mg/mL
solubility at 3 h [6]: 0.164 mg/mL
solubility at 3 h [7]: 0.252 mg/mL
Papp A→B [8]: 32 nm/s
recovery [9]: 90.1%
recovery [10]: 101%
recovery [11]: 96.3%
solubility at 3 h [12]: 0.0782 mg/mL
solubility at 3 h [13]: 0.183 mg/mL
solubility at 3 h [14]: 0.0159 mg/mL (≈ 33.8 µM)
recovery [15]: 92%
recovery at 5 mg/mL [16]: 101%
Papp A→B [17]: 29 nm/s
solubility at 3 h [18]: 0.0175 mg/mL (≈ 37.1 µM)
solubility at 3 h [19]: 0.4 mg/mL
solubility at 3 h [20]: 0.293 mg/mL
recovery [21]: 102%
permeability [22]: BLD
solubility at 3 h [23]: 0.109 mg/mL
solubility at 3 h [24]: 0.151 mg/mL
Drug uptake [2]: 13.6 ng/g
recovery [25]: 96%
fold change (FC) [26]: 26
Papp A→B [27]: 37 nm/s
solubility at 3 h [28]: 0.192 mg/mL
solubility at 3 h [29]: 0.0731 mg/mL (≈ 155 µM)
Drug uptake [3]: 11.6 ng/g
solubility at 3 h [30]: 0.246 mg/mL
solubility [31]: 0.0731 mg/mL (≈ 155 µM)
solubility at 3 h [32]: 0.00518 mg/mL
solubility at 3 h [33]: 0.00116 mg/mL (≈ 2.46 µM)
recovery [34]: 93.9%
solubility at 3 h [35]: 0.017 mg/mL (≈ 36.1 µM)
recovery [36]: 99.8%
fold change (FC) [37]: 6
recovery [38]: 99.9%
SMILES: C[C@H]1[C@H](C)CC[C@]2(C)CC[C@]3(C)C(=CC(=O)[C@@H]4[C@@]5(C)CC[C@@H](O)[C@](C)(C(=O)O)[C@@H]5CC[C@]43C)[C@H]12 [11-KETO BOSWELLIC ACID]
